EC50 data for 17 compounds are collected here from patent publication US20250145594A1, “MODULATORS OF THE INTEGRATED STRESS PATHWAY” (Calico Life Sciences LLC, priority 2020, published 2025).

Broadly, the EC50 is the concentration at which the effect is half-maximal.

The experiment deals with ATF4 luciferase reporter in HEK293T cells. Put plainly: ATF4-Luc assay (in vitro model of VWMD). Format: cell-based, human. The note with it: HEK293T cells carrying the ATF4 luciferase reporter, 1 μg/mL tunicamycin, One Glo luminescence. A digest of the protocol:
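Stable HEK293T line expressing firefly luciferase behind the human ATF4 5′-UTR, treated with 1 μg/mL tunicamycin plus compound for 7 hours. Luminescence read with One Glo; EC50 determined.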

Turning to `O=C(NC12CC(n3cc(C[C@H]4C[C@@H](OC(F)(F)F)C4)cn3)(C1)C2)[C@H]1C[C@@H](O)c2cc(Cl)ccc2O1` [Compound 531, (2R,4R)-6-chloro-4-hydroxy-N-[3-(4-{[(1s,3R)-3-(trifluoromethoxy)cyclobutyl]methyl}-1H-pyrazol-1-yl)bicyclo[1.1.1]pentan-1-yl]-3,4-dihydro-2H-1-benzopyran-2-carboxamide], the EC50 (Homo sapiens, HEK-293T, 7 h) was 10 to 50 nM.
On the same count and under the same terms, with `O=C(NC12CC(n3cc(-c4ccc(OC(F)(F)F)c(F)c4)cn3)(C1)C2)[C@@H]1C[C@@H](O)c2cc(Cl)ccc2O1` [Compound 306, (2S,4R)-6-chloro-N-(3-{4-[3-fluoro-4-(trifluoromethoxy)phenyl]-1H-pyrazol-1-yl}bicyclo[1.1.1]pentan-1-yl)-4-hydroxy-3,4-dihydro-2H-1-benzopyran-2-carboxamide] the figure was less than 10 nM; with `O=C(NC12CC(c3ccc(C(=O)N4CC(OCC(F)(F)F)C4)nc3)(C1)C2)[C@H]1C[C@@H](O)c2cc(Cl)ccc2O1` [Compound 533, (2R,4R)-6-chloro-4-hydroxy-N-(3-{6-[3-(2,2,2-trifluoroethoxy)azetidine-1-carbonyl]pyridin-3-yl}bicyclo[1.1.1]pentan-1-yl)-3,4-dihydro-2H-1-benzopyran-2-carboxamide], less than 10 nM; with `O=C(N[C@H]1CC[C@H](n2cc(OCCOC(F)(F)F)cn2)CC1)[C@H]1C[C@@H](O)c2ccccc2O1` [Compound 637, (2R,4R)-4-hydroxy-N-[(1r,4R)-4-{4-[2-(trifluoromethoxy)ethoxy]-1H-pyrazol-1-yl}cyclohexyl]-3,4-dihydro-2H-1-benzopyran-2-carboxamide], 50 to 250 nM.
Still for that read-out and setting: for `O=C(CO[C@H]1C[C@@H](OC(F)(F)F)C1)N[C@H]1C[C@H]2C[C@@H]1C[C@@H]2NC(=O)[C@@H]1C[C@@H](O)c2cc(Cl)ccc2O1` [Compound 388, (2S,4R)-6-chloro-4-hydroxy-N-[(1R,2S,4R,5S)-5-(2-{[cis-3-(trifluoromethoxy)cyclobutyl]oxy}acetamido)bicyclo[2.2.1]heptan-2-yl]-3,4-dihydro-2H-1-benzopyran-2-carboxamide] the value was 50 to 250 nM.
On to `O=C(COc1ccc(Cl)c(F)c1)NC12CC(c3ccnc(OCCCOC(F)(F)F)c3)(C1)C2` [Compound 602, 2-(4-chloro-3-fluorophenoxy)-N-(3-{2-[3-(trifluoromethoxy)propoxy]pyridin-4-yl}bicyclo[1.1.1]pentan-1-yl)acetamide], for which the EC50 (7 hours) was less than 10 nM.
For the compound `O=C(NC12CC(n3cc(N4CC[C@@H](COC(F)(F)F)C4)cn3)(C1)C2)[C@H]1C[C@@H](O)c2cc(Cl)ccc2O1` [Compound 336, (2R,4R)-6-chloro-4-hydroxy-N-[3-(4-{(3R)-3-[(trifluoromethoxy)methyl]pyrrolidin-1-yl}-1H-pyrazol-1-yl)bicyclo[1.1.1]pentan-1-yl]-3,4-dihydro-2H-1-benzopyran-2-carboxamide], the EC50 (Homo sapiens, HEK-293T, 7 h) is 50 to 250 nM.
The same measure, in the same setting: with `O=C(NC12CC(n3cc(C(=O)N4CC(COC(F)F)C4)cn3)(C1)C2)[C@H]1C[C@@H](O)c2cc(Cl)ccc2O1` [Compound 348, (2R,4R)-6-chloro-N-[3-(4-{3-[(difluoromethoxy)methyl]azetidine-1-carbonyl}-1H-pyrazol-1-yl)bicyclo[1.1.1]pentan-1-yl]-4-hydroxy-3,4-dihydro-2H-1-benzopyran-2-carboxamide] the figure was 50 to 250 nM; with `O=C(NC12CC(n3cc(O[C@H]4C[C@H](COC(F)(F)F)C4)cn3)(C1)C2)[C@H]1C[C@@H](O)c2cc(Cl)ccc2O1` [Compound 588, (2R,4R)-6-chloro-4-hydroxy-N-{3-[4-(((1r,3R)-3-[(trifluoromethoxy)methyl]cyclobutyl}oxy)-1H-pyrazol-1-yl]bicyclo[1.1.1]pentan-1-yl)-3,4-dihydro-2H-1-benzopyran-2-carboxamide], 10 to 50 nM; with `O=C(COc1ccc(Cl)c(F)c1)NC12CC(n3cc(CCCOC(F)(F)F)cn3)(C1)C2` [Compound 613, 2-(4-chloro-3-fluorophenoxy)-N-(3-{4-[3-(trifluoromethoxy)propyl]-1H-pyrazol-1-yl}bicyclo[1.1.1]pentan-1-yl)acetamide], 10 to 50 nM.
Still for that read-out and setting: for `O=C(N[C@H]1CC[C@H](n2cc(N3CC[C@@H](OC(F)(F)F)C3)cn2)CC1)[C@H]1C[C@@H](O)c2cc(Cl)c(F)cc2O1` [Compound 582, (2R,4R)-6-chloro-7-fluoro-4-hydroxy-N-[(1R,4R)-4-{4-[(3R)-3-(trifluoromethoxy)pyrrolidin-1-yl]-1H-pyrazol-1-yl}cyclohexyl]-3,4-dihydro-2H-1-benzopyran-2-carboxamide] the value was 10 to 50 nM; for `O=C(NC12CC(n3ccc([C@H]4C[C@@H](OC(F)(F)F)C4)n3)(C1)C2)[C@H]1C[C@@H](O)c2cc(Cl)ccc2O1` [Compound 314, (2R,4R)-6-chloro-4-hydroxy-N-(3-{3-[cis-3-(trifluoromethoxy)cyclobutyl]-1H-pyrazol-1-yl}bicyclo[1.1.1]pentan-1-yl)-3,4-dihydro-2H-1-benzopyran-2-carboxamide], 50 to 250 nM.
The same measure, in the same setting: with `O=C(NC12CC(n3cc(C(=O)N4CCC(F)(F)C4)cn3)(C1)C2)[C@H]1C[C@@H](O)c2cc(Cl)ccc2O1` [Compound 384, (2R,4R)-6-chloro-N-{3-[4-(3,3-difluoropyrrolidine-1-carbonyl)-1H-pyrazol-1-yl]bicyclo[1.1.1]pentan-1-yl}-4-hydroxy-3,4-dihydro-2H-1-benzopyran-2-carboxamide] the figure was 250 to 500 nM; with `O=C(NC12CC(n3cc(N4CC[C@@H](OC(F)(F)F)C4)cn3)(C1)C2)[C@@H]1C[C@@H](O)c2cc(Cl)c(F)cc2O1` [Compound 379, (2S,4R)-6-chloro-7-fluoro-4-hydroxy-N-(3-{4-[(3R)-3-(trifluoromethoxy)pyrrolidin-1-yl]-1H-pyrazol-1-yl}bicyclo[1.1.1]pentan-1-yl)-3,4-dihydro-2H-1-benzopyran-2-carboxamide], less than 10 nM.
`O=C(NC12CC(n3cc(-c4ccc(OC(F)(F)F)nc4)cn3)(C1)C2)[C@H]1C[C@@H](O)c2cc(Cl)ccc2O1` [Compound 350, (2R,4R)-6-chloro-4-hydroxy-N-(3-{4-[6-(trifluoromethoxy)pyridin-3-yl]-1H-pyrazol-1-yl}bicyclo[1.1.1]pentan-1-yl)-3,4-dihydro-2H-1-benzopyran-2-carboxamide]: the EC50 (Homo sapiens, HEK-293T, 7 h) was less than 10 nM.
On the same count and under the same terms, with `O=C(COc1ccc(Cl)c(F)c1)N[C@H]1CC[C@H](n2cc(C(=O)N3CC[C@H](OC(F)(F)F)C3)cn2)CC1` [Compound 609, 2-(4-chloro-3-fluorophenoxy)-N-[(1S,4r)-4-{4-[(3S)-3-(trifluoromethoxy)pyrrolidine-1-carbonyl]-1H-pyrazol-1-yl}cyclohexyl]acetamide] the figure was less than 10 nM.
As to `C[C@H](COC(F)(F)F)Oc1cnn(C23CC(NC(=O)[C@H]4C[C@@H](O)c5cc(Cl)ccc5O4)(C2)C3)c1` [Compound 440, (2R,4R)-6-chloro-4-hydroxy-N-[3-(4-{[(2R)-1-(trifluoromethoxy)propan-2-yl]oxy}-1H-pyrazol-1-yl)bicyclo[1.1.1]pentan-1-yl]-3,4-dihydro-2H-1-benzopyran-2-carboxamide], the EC50 (Homo sapiens, HEK-293T, 7 h) was 10 to 50 nM.
